Earlier results on 1 molecule are cited in patent US20060024806A1, “Mycolactone locus: an assembly line for producing novel polyketides, therapeutic and prophylactic uses” (priority 2003, published 2006).

SMILES strings stand for the structures.

In the data set the test system is guinea pig model of the disease. The settings on record: purified mycolactone injected subcutaneously.

As for `CC(=C\C=C\C(C)=C\[C@H](O)[C@@H](O)C[C@H](C)O)/C=C(C)/C=C/C(=O)O[C@H]1CCCC(=O)O[C@@H]([C@@H](C)C/C(C)=C/[C@@H](C)[C@H](O)C[C@@H](C)O)C/C=C(\C)C[C@@H]1C` [mycolactone], the pathology after injection result is “reproduces the natural pathology”.
